Structures can show the parent of a compound that is named as a salt.
Key:
Type in all cases: in vivo
[1] = tested on: mild to moderate AD patients; settings: 0.3 or 1.0 mg/d for 28 days, in addition to donepezil or rivastigmine; domains of non-verbal learning, memory, executive function
Protocol: The safety and efficacy of (R)-7-chloro-N-(quinuclidin-3-yl)benzo[b]thiophene-2-carboxamide HCl salt was assessed in a Phase 1b study of 48 mild to moderate AD patients 60-80 years of age, on stable donepezil (5 or 10 mg/day) or rivastigmine (6-12 mg/day administered as a twice daily dose, i.e., 3 or 6 mg per dose).
Patients were dosed with placebo or two different doses of (R)-7-chloro-N-(quinuclidin-3-yl)benzo[b]thiophene-2-carboxamide (0.3 or 1.0 mg/d) for 28 days. Safety was evaluated by adverse events, ECG, and clinical laboratory measures. Cognitive effects were measured by CogState computerized cognitive testing and a subset of NTB scales (category fluency, Trails A and B).

[2] = tested on: 5-month-old male Wistar rats; experiment: Object recognition task after scopolamine treatment; settings: for d2 difference from zero (one-sample t-tests) / effect on scopolamine-induced object memory dysfunction (comparison with scopolamine alone): present study; for d2 difference from zero (one-sample t-tests) / effect on scopolamine-induced object memory dysfunction (comparison with scopolamine alone) / Mean values (±SEM) of the indices of discrimination (d2) between the new and familiar objects: EVP-6124 0.03 mg/kg p.o., donepezil 0.1 mg/kg p.o., scopolamine 0.1 mg/kg i.p., 1 h delay; for Mean values (±SEM) of the indices of discrimination (d2) between the new and familiar objects: all 30 min before T1, n = 23
Source text: The object recognition task allows the assessment of consolidation of (object) information into memory (Ennaceur and Delacour, 1988; Prickaerts et al., 1997). In this task a rat is given two trials. In the first trial the rat is put into an arena in which two identical objects are placed. Usually, a rate will inspect the two objects for a certain amount of time. After a certain delay, the rat is given a second trial. In this trial the rat is again placed in the same arena but one of the objects has been replaced by a novel object. Similar to the first trial the rat again explores the two objects. The amount of time exploring each object is recorded in order to determine whether the rat spent a different amount of time exploring the two objects. On basis of this scoring the memory performance can be determined.
All drugs were given 30 minutes before the first trial.
All experimental procedures were approved by the local ethical committee of the Maastricht University for animal experiments and met governmental guidelines. Twenty-four 5-month-old male Wistar rats (Harlan, The Netherlands) were used (average body weights: 465 g). […] The animals were individually housed in standard type 3 Makrolon cages on sawdust bedding in an air-conditioned room (about 20° C.). They were kept under a 12/12-hour light/dark cycle (lights on from 19.00 to 7.00 h) and had free access to food and water. Rats were housed in the same room as where the animals were tested. A radio, which was playing softly, provided background noise in the room. All testing was done between 9.00 and maximally 18.00 h.
EVP-6124 was dissolved in H2O. The solution was prepared daily and tested at a dose of 0.03 mg/kg p.o. (injection volume 2 ml/kg). […] Donepezil was dissolved in saline. The solution was prepared daily and tested at a dose of 0.1 mg/kg p.o. (injection volume 2 ml/kg). Administration was always 30 min before trial 1 immediately after (R)-7-chloro-N-(quinuclidin-3-yl)benzo[b]thiophene-2-carboxamide.
Subsequently donepezil, (R)-7-chloro-N-(quinuclidin-3-yl)benzo[b]thiophene-2-carboxamide and the combination of both were tested (n=8 per condition per day of testing). All rats were treated once with each dose condition. […] The experimentator was unaware of the condition/drugs being tested.
The object recognition test was performed as described elsewhere (Ennaceur and Delacour, 1988). The apparatus consisted of a circular arena, 83 cm in diameter. Half of the 40 cm high wall was made of gray polyvinyl chloride, the other half of transparent polyvinyl chloride. The light intensity was equal in the different parts of the apparatus. Two objects were placed in a symmetrical position about 10 cm away from the gray wall. Each object was available in triplicate. The objects were: 1) a cone consisting of a gray polyvinyl chloride base (maximal diameter 18 cm) with a collar on top made of brass (total height 16 cm), 2) a standard 1 l brown transparent glass bottle (diameter 10 cm, height 22 cm) filled with water, 3) a massive metal cube (10.0×5.0×7.5 cm) with two holes (diameter 1.9 cm), and 4) a massive aluminum cube with a tapering top (13.0×8.0×8.0 cm). A rat could not displace the objects. Fluorescent red tubes and a light bulb provided a constant illumination of about 20 lux on the floor of the apparatus.
A testing session comprised two trials. The duration of each trial was 3 min. During the first trial (T1) the apparatus contained two identical objects (samples). A rat was always placed in the apparatus facing the wall at the middle of the front (transparent) segment. After the first exploration period the rat was put back in its home cage.

[3] = tested on: 5-month-old male Wistar rats; experiment: as above; settings: previous study; for effect on object memory deficit induced by scopolamine: scopolamine 0.1 mg/kg i.p.

Compound	cognitive function [1]	d2 difference from zero (one-sample t-tests) [2]	effect on scopolamine-induced object memory dysfunction (comparison with scopolamine alone) [2]	Mean values (±SEM) of the indices of discrimination (d2) between the new and familiar objects [2]	effect on object memory deficit induced by scopolamine ([3]; 0.03 mg/kg p.o.)	effect on object memory deficit induced by scopolamine ([3]; 0.3 mg/kg p.o.)	effect on scopolamine-induced object memory deficit ([3]; 0.1 mg/kg donepezil)	effect on scopolamine-induced object memory deficit ([3]; 0.3 mg/kg donepezil p.o.)	memory of the familiar object after 1 h delay interval ([2]; scopolamine 0.1 mg/kg i.p. alone)
O=C(N[C@H]1CN2CCC1CC2)c1cc2cccc(Cl)c2s1 [EVP-6124, (R)-7-chloro-N-(quinuclidin-3-yl)benzo[b]thiophene-2-carboxamide]	showed an increase in cognitive function	not different from zero	did not improve the memory	0.00 (0.05)	had no effect	completely attenuated			
COc1cc2c(cc1OC)C(=O)C(CC1CCN(Cc3ccccc3)CC1)C2 (centres unmarked) [donepezil, 1-benyzl-4-[(5,6-dimethoxy-1-indanon)-2-yl]methylpiperidine monohydrochloride]		not different from zero	did not improve the memory	−0.02 (0.05)			had no effect	attenuated	
CN1[C@@H]2C[C@@H](OC(=O)[C@H](CO)c3ccccc3)C[C@H]1[C@@H]1O[C@@H]12 [scopolamine]		no difference		0.02 (0.07)					no more memory of the familiar object was found
